How the values were obtained:
[1] = biological target: T1, new ADP-ribosyl cyclase (ADPRC) of SEQ ID NO 1 (Mus musculus, UniProt P14094); test: Inhibition of NAD glycohydrolase (NADase) activity of new ADPRC; type: biochemical; details: as compared to the control group; ε-NAD substrate, 37° C. 1 hour; inhibitor concentration not given; FIG. 5
T1 construct: FLAG (N); made in house; host or cells: HEK293 cells or MES13 cells (transient transfection)
Protocol: In order to investigate the ADP-ribosyl cyclase (ADPRC) activity of SEQ ID NO 1, a FLAG-ADPRC plasmid was prepared by ligating a cDNA sequence encoding ADPRC into a FLAG-CMV-2 vector and the overexpression of new ADPRC was induced by treating HEK293 cells or MES13 cells using a transfection reagent. The overexpressed new ADPRC was lysed with a lysis buffer. 45 μL of the lysed sample was treated with 5 μL of 2 mM ε-NAD (nicotinamide 1,N6-ethenoadenine dinucleotide) and incubated at 37° C. for 1 hour. Then, the enzyme-substrate reaction was stopped by treating with 50 μL of 10% trichloroacetic acid. After centrifuging for 10 minutes and adding 80 μL of the supernatant to 720 μL of 0.1 M sodium phosphate buffer, absorbance was measured at 297 nm (excitation) and 410 nm (emission) with a fluorescence spectrometer.
In order to find an inhibitor which inhibits the activation of new ADP-ribosyl cyclase (ADPRC) of SEQ ID NO 1, 5 μL of each of 4,4′-dihydroxyazobenzene (4-DHAB, TCI (Japan)), 2,2′-dihydroxyazobenzene (2-DAB, Sigma-Aldrich (USA)), 2-(3,4-dihydroxyphenyl)-3,5,7-trihydroxychromen-4-one (Quercetin, Sigma-Aldrich (USA)) and San4825 (synthesized by Kannt A et al. [Kannt A, Sicka K, Kroll K, Kadereit D, Gogelein H. Naunyn. Schmiedebergs. Arch. Pharmacol. 385: 717-727, 2012], China) and 2-(1,3-benzoxazol-2-ylamino)-1-methylquinazoline-4(1H)-one (2-BMQ) and 1,4-dicaffeoylquinic acid (1,4-DCQA, Biopurify (China), hereinafter DCQA), which were newly found through screening, was reacted with 40 μL of new ADPRC in iced water for 15 minutes. Then, reaction was conducted at 37° C. for 1 hour after treating with 5 μL of 2 mM ε-NAD (nicotinamide 1,N6-ethenoadenine dinucleotide). Then, the enzyme-substrate reaction was stopped by treating with 50 μL of 10% trichloroacetic acid. After centrifuging for 10 minutes and adding 80 μL of the supernatant to 720 μL of 0.1 M sodium phosphate buffer, absorbance was measured at 297 nm (excitation) and 410 nm (emission) using a fluorescence spectrometer.

[2] = system: ADPRC activity and cADPR concentration in kidney tissue; test: ADPRC activity and cADPR concentration in kidney tissue of renal disease mouse model; type: in vivo; details: STZ mice, DCQA i.p. every day for 6 weeks
Protocol: The ADPRC activity and cADPR concentration in the kidney tissue of a renal disease mouse model were measured by the method reported by Kim S Y et al. [Kim S Y, Park K H, Gul R, Jang K Y, Kim U H. Am. J. Physiol. Renal Physiol. 296: F291-F297, 2009]
Specifically, 0.2 mL of 50 mM citrate buffer (pH 4.8) (control group and DCQA group) or 200 μL of 5 mg/mL streptozotocin (STZ, Sigma-Aldrich (USA)) dissolved in 50 mM citrate buffer (STZ group and STZ+DCQA group) was intraperitoneally injected to C57BL/6J mice. Blood glucose was measured from day 2 after the STZ injection and the mice whose blood glucose level was 300 mg/dL were divided into an STZ group and an STZ+DCQA group. […] In order to investigate the possibility as a therapeutic agent for a renal disease, the mouse was sacrificed and serum and kidney were taken.
After lysing some of the kidney tissue with a lysis buffer, 45 μL of the lysed sample was treated with 5 μL of 2 mM NGD (nicotinamide guanine dinucleotide) and reacted at 37° C. for 1 hour. Then, the enzyme-substrate reaction was stopped by treating with 50 μL of 10% trichloroacetic acid. After centrifuging for 10 minutes and adding 80 μL of the supernatant to 720 μL of a 0.1 M sodium phosphate buffer, absorbance was measured at 297 nm (excitation) and 410 nm (emission) with a fluorescence spectrometer (Hitachi, Japan). […]

[3] = system: kidney tissue of diabetic renal disease mouse model; test: Histopathological change in kidney tissue of renal disease mouse model (H&E staining); type: in vivo; details: STZ mice, DCQA i.p. every day for 6 weeks, FIG. 9
Protocol: The histopathological change in the kidney tissue of a renal disease mouse model was measured by the method reported by Shu B et al. [Shu B, Feng Y, Gui Y, Lu Q, Wei W, Xue X, Sun X, He W, Yang J, Dai C. Cell. Signal. 42:249-258, 2018]
Specifically, 0.2 mL of 50 mM citrate buffer (pH 4.8) (control group and DCQA group) or 200 μL of 5 mg/mL streptozotocin (STZ, Sigma-Aldrich (USA)) dissolved in 50 mM citrate buffer (STZ group and STZ+DCQA group) was intraperitoneally injected to C57BL/6J mice. Blood glucose was measured from day 2 after the STZ injection and the mice whose blood glucose level was 300 mg/dL were divided into an STZ group and an STZ+DCQA group. […] In order to investigate the possibility as a therapeutic agent for a renal disease, the mouse was sacrificed and serum and kidney were taken. Some of the extracted kidney was fixed in 10% formalin. The kidney tissue fixed in 10% formalin was cut into kidney tissue sections on a slide glass using a cryostat microtome. The kidney tissue sections were washed with running water for 5 minutes and then stained with hematoxylin for 5 minutes. After the staining, the tissue was washed with running water for 5 minutes. Then, the tissue was immersed in 157 mM hydrochloric acid 2 times and taken out quickly. Then, the tissue was immersed once in 0.25% ammonia water and taken out quickly. After washing again with running water for 5 minutes and staining with eosin for about 30 seconds, the tissue was reacted with 70% ethanol for 30 seconds, with 80% ethanol for 30 seconds, with 90% ethanol for 30 seconds, with 100% ethanol for 30 seconds, again with 100% ethanol for 30 seconds, and then again with 100% ethanol for 30 seconds. Finally, after reacting with xylene for 5 minutes and again with xylene for 5 minutes or longer, a cover glass was attached using a mounting solution.

## O=C(/C=C/c1ccc(O)c(O)c1)OC1[C@H](O)CC(OC(=O)/C=C/c2ccc(O)c(O)c2)(C(=O)O)C[C@H]1O (stereo partly drawn) [DCQA, 1,4-dicaffeoylquinic acid]
[1]
  NAD glycohydrolase (NADase) activity inhibited: 79.64%
[2]; FIG. 7B
  cADPR concentration in kidney tissue: decreased the cADPR concentration increased by STZ to the level of the control group
[2]; NGD substrate, FIG. 7A
  ADP-ribosyl cyclase activity in kidney tissue: decreased the ADP-ribosyl cyclase activity increased by STZ to the level of the control group
[3]
  formation of transitional epithelial cells increased by STZ, recovered by DCQA: to a level similar to that of the control group
  glomerulus hypertrophy increased by STZ, recovered by DCQA: to a level similar to that of the control group
  infiltration of inflammatory cells increased by STZ, recovered by DCQA: to a level similar to that of the control group
